What was measured:
recombinant human furin [1] = biological target: T1, recombinant human furin (Homo sapiens, UniProt P09958); experiment: Analysis of furin-processed FRET substrates by LC-MS / HPLC / Maldi-TOF; assay type: biochemical; conditions: FRET peptide 5 μM, spectrofluorimeter and Maldi-TOF after 2 h of incubation with furin
T1 construct: made in house
Text: In order to see if the mutations have an influence in cleavage, peptides containing the original reference sequences and their derivative containing positive selected mutations, were synthesized and tested against recombinant human furin. All substrates were cleaved after the double basic residues RR or KR as analyzed by Liquid Chromatography mass spectrometry (LC-MS) (Supplementary Figures S1–S3). The kcat/km ratio relates to the catalytic efficiency, meaning how fast in […] the enzyme reacts with the substrate once it encounters it. As a control, a peptide which contains a mutation previously shown to interfere with furin cleavage ([Strive et al., 2002]) was tested and as expected no cleavage was observed (Table 2 and Supplementary Figure S3).
Supplementary file Image_1.TIF: FIGURE S1 HPLC of furin-processed FRET substrates. […] Substrate and products were followed by fluorescence (Abz, ex320 nm; em420 nm) quenching (Eddnp, uv = 365 nm) indicating single cleavage site for all tested sequences. (A) gB3_22. (B) gB_20. (C) gB3_26 (D) gB2_18. (E) gB2_13. (F) gB2_19. Click here for additional data file.
Supplementary file Image_2.TIF: FIGURE S2 Mass spectra of furin-processed substrates. […] (A) gB3_22 substrate and products (1549.3, 678.7, and 888.7 Da). (B) gB2_13 (1634.4, 706.7, and 945.7 Da). (C) gB_20 (1604.3, 706.7, and 915.6 Da). […]

recombinant human furin [2] = biological target: T1, recombinant human furin; experiment: FRET peptide enzymatic kinetics assay of cleavage by furin; assay type: biochemical; conditions: for Km / kcat: FRET peptide as furin substrate, 10 mM MES, 1 mM CaCl2, pH 7.0, 37°C, fluorescence λex 320 nm/λem 420 nm, non-linear Michaelis-Menten fit (Grafit)
Description: Recombinant human furin was expressed and purified as previously described ([Kacprzak et al., 2004]). The enzyme concentration was determined by active site titration using the inhibitor decanoyl-RVKR-CMK inhibitor in 10 mM MES buffer, 1 mM CaCl2, pH 7.0 and the substrate Abz-GIRRKRSVSHQ-EDDnp.
Seven synthetic peptides were obtained by solid-phase strategy, as previously described ([Izidoro et al., 2010]) using the Fmoc-procedure in an automated multiple solid-phase peptide synthesizer (PSSM 8 system, Shimadzu, Japan) ([Hirata et al., 1995]; [Korkmaz et al., 2008]). Peptides were prepared in dimethylformamide and stock concentrations measured spectrophotometrically at 365 nm (e = 17,300 M^-1.cm^-1). The quantum yields of the FRET peptides and the products of their hydrolysis were unchanged in all tested conditions.
The FRET peptides were assayed in 10 mM MES, 1 mM CaCl2, pH 7.0, using a F-2500 spectrofluorimeter (Hitachi, Tokyo, Japan), at 37°C ([Izidoro et al., 2010]), as previously described. Fluorescence changes were monitored continuously at λex = 320 nm and λem = 420 nm. The enzyme concentrations for initial rate determinations were chosen at a level intended to hydrolyze less than 5% of the amount of added substrate over the time course of data collection.
Three kinetic parameters from the Michaelis-Menten model were analyzed, representing enzyme-substrate (km), the catalysis constant (kcat) and the kcat/km ratio. The kinetic parameters km and kcat were calculated by non-linear regression using Grafit software (Erithacus Software, Horley, Surrey, UK). km, kcat, and standard errors (less than 10%) were calculated using Grafit software (v.5.0.13, Erithacus Software, Horley, Surrey, UK) with a non-linear least squares Michaelis-Menten fit associated with a matrix invertion fitting routine to refine kcat, km and allowing estimation of the errors. Standard deviations greater than 10% are due to low values obtained.

[3] = versus genotype 3 reference peptide (gB3_22)

T1 sequence (P09958 108-794): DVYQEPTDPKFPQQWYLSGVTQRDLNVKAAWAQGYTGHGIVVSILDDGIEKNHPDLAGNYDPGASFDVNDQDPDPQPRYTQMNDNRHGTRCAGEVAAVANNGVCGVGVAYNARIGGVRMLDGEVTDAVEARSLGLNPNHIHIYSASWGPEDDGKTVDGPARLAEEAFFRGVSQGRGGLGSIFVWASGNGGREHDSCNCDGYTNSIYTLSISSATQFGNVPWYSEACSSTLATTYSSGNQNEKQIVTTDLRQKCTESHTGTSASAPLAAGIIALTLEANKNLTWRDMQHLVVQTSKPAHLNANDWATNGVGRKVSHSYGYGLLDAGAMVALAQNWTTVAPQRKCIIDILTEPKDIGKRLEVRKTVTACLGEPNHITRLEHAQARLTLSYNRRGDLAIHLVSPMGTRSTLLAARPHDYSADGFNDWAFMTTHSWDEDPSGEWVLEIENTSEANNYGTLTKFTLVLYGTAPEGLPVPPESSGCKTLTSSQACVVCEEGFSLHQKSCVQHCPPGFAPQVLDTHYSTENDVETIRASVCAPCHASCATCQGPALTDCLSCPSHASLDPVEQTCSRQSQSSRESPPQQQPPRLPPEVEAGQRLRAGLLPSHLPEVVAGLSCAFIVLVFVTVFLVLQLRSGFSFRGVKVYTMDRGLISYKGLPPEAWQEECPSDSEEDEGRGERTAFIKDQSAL

| Substance | processing by furin (cleavage observed or not) (recombinant human furin [1]) | Km (recombinant human furin [2]) | kcat (recombinant human furin [2]) | decrease in kcat/km ratio compared to the reference sequence (recombinant human furin [2]; [3]) | increase in the km compared to the reference sequence (recombinant human furin [2]; [3]) | increase of the kcat/km ratio compared to the reference sequence (recombinant human furin [2]; versus genotype 2 reference sequence (gB2_13)) |
| --- | --- | --- | --- | --- | --- | --- |
| ATRASTSDNNT | not processed by furin | – | – | – | – | – |
| RTKR↓DTGNTTT [gB3_26, FRET peptide of gB genotype 3 with the positively selected mutation S461D] | – | 0.43 µM | 1.89 s⁻¹ | threefold | 20 times | – |
| RTKR↓STGNTTT [gB3_22] | – | 0.02 µM | 0.25 s⁻¹ | – | – | – |
| RTRR↓SASDNNT [gB2_20, FRET peptide of gB genotype 2 with the positively selected mutation T462A] | – | 0.69 µM | 4.06 s⁻¹ | – | – | – |
| RTRR↓SMSDNNT [gB2_18, FRET peptide of gB genotype 2 with the positively selected mutation T462M] | – | 1.65 µM | 3.01 s⁻¹ | – | – | – |
| RTRR↓SRSDNNT [gB2_19, FRET peptide of gB genotype 2 with the positively selected mutation T462R] | – | 0.23 µM | 5.06 s⁻¹ | – | – | 31 fold |
| RTRR↓STSDNNT [gB2_13] | – | 3.19 µM | 2.24 s⁻¹ | – | – | – |

— article PMC5441137, “Positively Selected Sites at HCMV gB Furin Processing Region and Their Effects in Cleavage Efficiency” (Frontiers in Microbiology, 2017)
